According to US10421779B2, “Carbazole compound having anti-virus activity” (priority 2016, dated 2019):
Like-named read-outs stand apart in the source and are kept apart here.

What was measured:
Type in all cases: cell-based
[1] = test system: HCV genotype 2a (HCV cell culture system, HCVcc); test: HCVcc genotype 2a JFH1 (JFH 5a-Rluc) virus in Huh7.5.1 cells, luciferase assay; settings: Hepatitis C virus, Huh-7.5.1, 72 h, HCV genotype 2a JFH 5a-Rluc, 3 days, read-out: Replicon EC50 2a type
Experimental: (§1) From human liver cells (Huh7.5.1 cell) infected by hepatitis C virus, the anti-virus effects by the compound of the present invention were measured. From HCV genotype 1 b (HCV replicon system), genotype 2a (HCV cell culture system, HCVcc), and genotype 3a, the EC50 values were measured.
In order to measure the EC50 value from HCV genotype 2a, a luciferase assay was used. A JFH1 clone (JFH 5a-Rluc) virus constructed to have a Renilla luciferase enzyme (Rluc) gene in NS5A protein was infected with Huh7.5.1 cell being a host cell, and then the EC50 value was measured by taking cells grown for 3 days by treating the experimental compound under various concentration conditions, and analyzing the activity degree of the luciferase.

[2] = test system: HCV genotype 1 b (HCV replicon system); test: HCV replicon system genotype 1b, Renilla luciferase activity; settings: Hepatitis C virus, 72 h, HCV genotype 1b replicon, Rluc, 3 days, read-out: Replicon EC50 1b type
Experimental: as §1
In order to measure the EC50 value from HCV genotype 1 b, the degrees of HCV replication inhibitory activities of an experimental compound were measured. The EC50 value was measured by treating the experimental compound with the HCV replicon systems (genotype 1 b) having Renilla luciferase (Rluc) genes and genotype 1 b non-structure genes under various concentration conditions to compare the activity degree of the luciferase after 3 days elapsed time with that of the control.

[3] = test system: hepatitis C virus mutant L31V of the NS5A region; test: Efficacy on resistant mutant L31V; settings: read-out: EC50 L31V
Source text: (§2) As a mutant resistant to hepatitis C virus, L31V and Y93H of the NS5A region, and double mutants thereof were applied.

[4] = test system: HCV genotype 3a (HCV replicon system); test: HCV replicon system genotype 3a, firefly luciferase activity; settings: Hepatitis C virus, 72 h; HCV genotype 3a replicon, Fluc, 3 days; read-out: Replicon EC50 3a type
Experimental: as §1
In order to measure the EC50 value from genotype 3a, the value was measured through the luciferase activity. A HCV replicon system having firefly luciferase (Fluc) genes and genotype 3a non-structure genes was used. The HCV replicon system having the genes as described above was used to treat the experimental compound under various concentration conditions, and then 3 days later, the EC50 value was measured by comparing the luciferase activity with that of the control.

[5] = test system: hepatitis C virus mutant Y93H of the NS5A region; test: Efficacy on resistant mutant Y93H; settings: read-out: EC50 Y93H
Source text: as §2

| Structure (SMILES) | EC50 [1] [nM] | EC50 [2] [pM] | EC50 [3] [nM] | EC50 [4] [nM] | EC50 ([2]; range limits given with own units (pM to nM)) [pM] | EC50 [5] [nM] |
| --- | --- | --- | --- | --- | --- | --- |
| CCCCCCCCCCn1c2cc(NC(=O)[C@@H]3CCCN3C(=O)[C@H](NC(=O)OC)c3ccccc3)ccc2c2ccc(NC(=O)[C@@H]3CCCN3C(=O)[C@H](NC(=O)OC)c3ccccc3)cc21 [Example 24, dimethyl ((1R,1′R)-((2S,2′S)-(((9-decyl-9H-carbazole-2,7-diyl)bis(azanediyl))bis(carbonyl))bis(pyrrolidine-2,1-diyl))bis(2-oxo-1-phenylethane-2,1-diyl))dicarbamate] | 10 to 100 | ~10 |  |  |  |  |
| CCCCCCCCn1c2cc(NC(=O)[C@@H]3CCCN3C(=O)[C@H](NC(=O)OC)c3ccccc3)ccc2c2ccc(NC(=O)[C@@H]3CCCN3C(=O)[C@H](NC(=O)OC)c3ccccc3)cc21 [Example 26, dimethyl ((1R,1′R)-((2S,2′S)-(((9-octyl-9H-carbazole-2,7-diyl)bis(azanediyl))bis(carbonyl))bis(pyrrolidine-2,1-diyl))bis(2-oxo-1-phenylethane-2,1-diyl))dicarbamate] | 10 to 100 | 7.92 | 1 to 10 |  |  |  |
| CCCCCCCCCCCCn1c2cc(NC(=O)[C@@H]3CCCN3C(=O)[C@H](NC(=O)OC)c3ccccc3)ccc2c2ccc(NC(=O)[C@@H]3CCCN3C(=O)[C@H](NC(=O)OC)c3ccccc3)cc21 [Example 27, dimethyl ((1R,1′R)-((2S,2′S)-(((9-dodecyl-9H-carbazole-2,7-diyl)bis(azanediyl))bis(carbonyl))bis(pyrrolidine-2,1-diyl))bis(2-oxo-1-phenylethane-2,1-diyl))dicarbamate] | 10 to 100 | 1.85 | 0.1 to 1 |  |  |  |
| CCCC(c1ccccc1)n1c2cc(NC(=O)[C@@H]3CCCN3C(=O)[C@H](NC(=O)OC)c3ccccc3)ccc2c2ccc(NC(=O)[C@@H]3CCCN3C(=O)[C@H](NC(=O)OC)c3ccccc3)cc21 (stereo partly drawn) [Example 28, dimethyl ((1R,1′R)-((2S,2′S)-(((9-(1-phenylbutyl)-9H-carbazole-2,7-diyl)bis(azanediyl))bis(carbonyl))bis(pyrrolidine-2,1-diyl))bis(2-oxo-1-phenylethane-2,1-diyl))dicarbamate] | 1 to 10 | 4.52 | < 0.1 |  |  |  |
| CCCCCCCC(c1ccccc1)n1c2cc(NC(=O)[C@@H]3CCCN3C(=O)[C@H](NC(=O)OC)c3ccccc3)ccc2c2ccc(NC(=O)[C@@H]3CCCN3C(=O)[C@H](NC(=O)OC)c3ccccc3)cc21 (stereo partly drawn) [Example 29, dimethyl ((1R,1′R)-((2S,2′S)-(((9-(1-phenyloctyl)-9H-carbazole-2,7-diyl)bis(azanediyl))bis(carbonyl))bis(pyrrolidine-2,1-diyl))bis(2-oxo-1-phenylethane-2,1-diyl))dicarbamate] | 1 to 10 | 10 to 100 |  | 10 to 100 |  |  |
| CCCCCOc1cccc(Cn2c3cc(NC(=O)[C@@H]4CCCN4C(=O)[C@H](NC(=O)OC)c4ccccc4)ccc3c3ccc(NC(=O)[C@@H]4CCCN4C(=O)[C@H](NC(=O)OC)c4ccccc4)cc32)c1 [Example 30, dimethyl ((1R,1′R)-((2S,2′S)-(((9-(3-(pentyloxy)benzyl)-9H-carbazole-2,7-diyl)bis(azanediyl))bis(carbonyl))bis(pyrrolidine-2,1-diyl))bis(2-oxo-1-phenylethane-2,1-diyl))dicarbamate] | ~1 | 10 to 100 |  | 0.071 |  |  |
| CCCCOc1ccccc1Cn1c2cc(NC(=O)[C@@H]3CCCN3C(=O)[C@H](NC(=O)OC)c3ccccc3)ccc2c2ccc(NC(=O)[C@@H]3CCCN3C(=O)[C@H](NC(=O)OC)c3ccccc3)cc21 [Example 32, dimethyl ((1R,1′R)-((2S,2′S)-(((9-(2-butoxybenzyl)-9H-carbazole-2,7-diyl)bis(azanediyl))bis(carbonyl))bis(pyrrolidine-2,1-diyl))bis(2-oxo-1-phenylethane-2,1-diyl))dicarbamate] | 1 to 10 |  |  |  | 100 to 1000 |  |
| CCCCOc1ccc(Cn2c3cc(NC(=O)[C@@H]4CCCN4C(=O)[C@H](NC(=O)OC)c4ccccc4)ccc3c3ccc(NC(=O)[C@@H]4CCCN4C(=O)[C@H](NC(=O)OC)c4ccccc4)cc32)cc1 [Example 36, dimethyl ((1R,1′R)-((2S,2′S)-(((9-(4-butoxybenzyl)-9H-carbazole-2,7-diyl)bis(azanediyl))bis(carbonyl))bis(pyrrolidine-2,1-diyl))bis(2-oxo-1-phenylethane-2,1-diyl))dicarbamate] |  | 3.26 | 0.1 to 1 | 0.0126 |  | 100 to 1000 |
| COC(=O)N[C@@H](C(=O)N1CCC[C@H]1C(=O)Nc1ccc2c3ccc(NC(=O)[C@@H]4CCCN4C(=O)[C@H](NC(=O)OC)c4ccccc4)cc3n(Cc3cccc(OC4CCCC4)c3)c2c1)c1ccccc1 [Example 39, dimethyl ((1R,1′R)-((2S,2′S)-(((9-(3-(cyclopentyloxy)benzyl)-9H-carbazole-2,7-diyl)bis(azanediyl))bis(carbonyl))bis(pyrrolidine-2,1-diyl))bis(2-oxo-1-phenylethane-2,1-diyl))dicarbamate] |  | 1.13 | 0.1 to 1 | 0.00638 |  | 100 to 1000 |
| COC(=O)N[C@@H](C(=O)N1CCC[C@H]1C(=O)Nc1ccc2c3ccc(NC(=O)[C@@H]4CCCN4C(=O)[C@H](NC(=O)OC)c4ccccc4)cc3n(Cc3ccccc3C(F)(F)F)c2c1)c1ccccc1 [Example 43, dimethyl ((1R,1′R)-((2S,2′S)-(((9-(2-(trifluoromethyl)benzyl)-9H-carbazole-2,7-diyl)bis(azanediyl))bis(carbonyl))bis(pyrrolidine-2,1-diyl))bis(2-oxo-1-phenylethane-2,1-diyl))dicarbamate] | > 10 | ~10 |  |  |  |  |
| COC(=O)N[C@@H](C(=O)N1CCC[C@H]1C(=O)Nc1ccc2c3ccc(NC(=O)[C@@H]4CCCN4C(=O)[C@H](NC(=O)OC)c4ccccc4)cc3n(Cc3cccc(C(F)(F)F)c3)c2c1)c1ccccc1 [Example 44, dimethyl ((1R,1′R)-((2S,2′S)-(((9-(3-(trifluoromethyl)benzyl)-9H-carbazole-2,7-diyl)bis(azanediyl))bis(carbonyl))bis(pyrrolidine-2,1-diyl))bis(2-oxo-1-phenylethane-2,1-diyl))dicarbamate] | > 10 | ~10 |  | 0.01 to 0.1 |  |  |
| COC(=O)N[C@@H](C(=O)N1CCC[C@H]1C(=O)Nc1ccc2c3ccc(NC(=O)[C@@H]4CCCN4C(=O)[C@H](NC(=O)OC)c4ccccc4)cc3n(Cc3ccc(C(F)(F)F)cc3)c2c1)c1ccccc1 [Example 45, dimethyl ((1R,1′R)-((2S,2′S)-(((9-(4-(trifluoromethyl)benzyl)-9H-carbazole-2,7-diyl)bis(azanediyl))bis(carbonyl))bis(pyrrolidine-2,1-diyl))bis(2-oxo-1-phenylethane-2,1-diyl))dicarbamate] | > 10 | ~10 |  | 0.199 |  |  |
| COC(=O)N[C@@H](C(=O)N1CCC[C@H]1C(=O)Nc1ccc2c3ccc(NC(=O)[C@@H]4CCCN4C(=O)[C@H](NC(=O)OC)c4ccccc4)cc3n(C(C3CC3)C3CC3)c2c1)c1ccccc1 [Example 49, dimethyl ((1R,1′R)-((2S,2′S)-(((9-(dicyclopropylmethyl)-9H-carbazole-2,7-diyl)bis(azanediyl))bis(carbonyl))bis(pyrrolidine-2,1-diyl))bis(2-oxo-1-phenylethane-2,1-diyl))dicarbamate] | > 10 | 8.4 |  | 0.0766 |  |  |
| CCCCn1c2cc(NC(=O)[C@@H]3CCCN3C(=O)[C@H](NC(=O)OC)c3ccccc3)ccc2c2ccc(-c3c[nH]c([C@@H]4CCCN4C(=O)[C@H](NC(=O)OC)c4ccccc4)n3)cc21 [Example 51, methyl ((R)-2-((S)-2-((9-butyl-7-(2-((S)-1-((R)-2-((methoxycarbonyl)amino)-2-phenylacetyl)pyrrolidine-2-yl)-1H-imidazole-4-yl)-9H-carbazole-2-yl)carbamoyl)pyrrolidine-1-yl)-2-oxo-1-phenylethyl)carbamate] | 0.387 | 14.5 |  | 0.193 |  |  |
| CCCCn1c2cc(NC(=O)[C@@H]3CCCN3C(=O)[C@H](NC(=O)OC)c3ccccc3)ccc2c2ccc(-c3c[nH]c([C@@H]4CCCN4C(=O)[C@@H](NC(=O)OC)C(C)C)n3)cc21 [Example 52, methyl ((R)-2-((S)-2-((9-butyl-7-(2-((S)-1-((methoxycarbonyl)-L-valyl)pyrrolidine-2-yl)-1H-imidazole-4-yl)-9H-carbazole-2-yl)carbamoyl)pyrrolidine-1-yl)-2-oxo-1-phenylethyl)carbamate] | 0.171 | 12.3 |  | 0.148 |  |  |
